Laboratory results as given in US4452812A, “Organic complex of platinum, its preparation and its use for treating malignant tumors” (Sanofi, priority 1980, dated 1984).
Entries after “also recorded” stand apart in the source; their conditions may differ.

Legend:
leukemia L 1210 [1] = experiment: Anti-tumour activity, leukemia L 1210, i.p. graft, i.p. treatment
Experimental: […] females (CNRS, Orleans) of 20 to 22 g
(a) i.p. graft--i.p. treatment
10^5 cells were grafted intraperitoneally on D0 and intraperitoneal treatment was carried out 24 hours later, D1, in one single injection.
PHD and PHM were suspended in a 4% Klucel (hydroxy propyl cellulose) solution (the word "Klucel" is a registered trademark of Hercules Incorporated, Delaware, U.S.A.).
The solutions of these compounds were prepared extemporaneously. The increase in life span, ILS (%), were calculated in comparison with the controls by the following formula: [formula] Deaths were recorded until day 30 for L 1210 tumour and until day 60 for S180 tumour.

sarcoma S 180 = experiment: Anti-tumour activity, sarcoma S 180 ascite, i.p. graft, i.p. treatment; assay type: in vivo, mouse (Swiss female); conditions: for ILS: single i.p. on D1
Experimental: Swiss female mice (Evic-Ceba, Bordeaux) of 20 to 22 g
10^6 cells intraperitoneally grafted on D0
intraperitoneal treatment 24 hours later, D1, in one single injection.
(§1) The solutions of these compounds were prepared extemporaneously.

leukemia L 1210 [2] = experiment: Anti-tumour activity, leukemia L 1210, s.c. graft, i.p. treatment; assay type: in vivo, mouse; conditions: s.c. graft 10^6 cells
Experimental: (§2) I. […] L 1210: Ascite and Solid
(c) s.c. graft--i.p. treatment
10^6 cells were grafted under the skin behind the head on D0 and intraperitoneal treatment was carried out in one single injection either on D1 or on D4.
as §1

leukemia L 1210 [3] = experiment: Anti-tumour activity, leukemia L 1210, i.p. graft, i.v. treatment; assay type: in vivo, mouse; conditions: for ILS: i.p. graft 10^5 cells
Experimental: as §2
(b) i.p. graft--i.v. treatment
as §1

L 1210 cells [4] = experiment: Cytotoxicity on L 1210 cells in culture; assay type: cell-based; conditions: read-out: ID50 (reduces by 50% the rate of growth of the cells); usually 24 to 48 hours contact
mouse = experiment: Acute toxicity in the mouse; assay type: in vivo, mouse (Swiss female); conditions: for loss of weight on the 4th day: i.p.
Experimental: (§3) Acute toxicity, one single injection of the compound, was measured using Swiss female mice (Evic-Ceba, Bordeaux) of 21 to 23 g. and Sprague-Dawley rats. Ten animals were treated for each dose studied.

rat = experiment: Acute toxicity in the rat; assay type: in vivo, rat (Sprague-Dawley)
Experimental: as §3

[5] = test system: renal and hepatic parenchyma; experiment: Renal and hepatic toxicity; assay type: in vivo, mouse (Swiss female)
Experimental: It was thus of interest to compare the effects of the novel compound of the invention with those of the already known compounds listed above on the kidney and the liver, i.e. the organs in which the greatest amount of platinum accumulates.
Swiss female mice (Evic-Ceba, Bordeaux) of 20 to 22 g were treated by intraperitoneal route D0 and then sacrificed on D1, D4 and D10.
Slices 5 microns thick were coloured with hemalun eosine stain.

L 1210 cells [6] = experiment: Cellular penetration of platinum in vivo into L 1210 cells; set-up: species or system mouse (DBA/2); conditions: PHIC 150 mg/kg, two hours after treatment on D3
Experimental: DBA/2 mice received 10^6 L 1210 cells on D0 and were treated three days later with an amount of platinum compound equal to the LD0 in the healthy mouse. Two hours after treatment on D3, the animals were sacrificed. About 20.10^6 cells were extracted from the peritoneum and washed several times so as to eliminate the extra-cellular platinum and also any intracellular platinum which was not bound in a covalent manner with the cellular organelles. Platinum was monitored by atomic absorption for whole cells and also on the DNA which was purified by phenol extraction. […] This corresponds to 180.10^-16 g of platinum per leukemic cell. Under these conditions, one fixed platinum atom per 3000 nucleotides was found, i.e. a total of 1% of the amount which penetrated the cells was complexed to DNA. […] 10^-16 of platinum per cell.

DNA = experiment: Platinum fixed on DNA of L 1210 cells in vivo; set-up: species or system mouse (DBA/2); conditions: PDD 9 mg/kg, PHIC 150 mg/kg; two hours after treatment on D3
Experimental: DBA/2 mice received 10^6 L 1210 cells on D0 and were treated three days later with an amount of platinum compound equal to the LD0 in the healthy mouse. Two hours after treatment on D3, the animals were sacrificed. […] Platinum was monitored by atomic absorption for whole cells and also on the DNA which was purified by phenol extraction. […] Under these conditions, one fixed platinum atom per 3000 nucleotides was found, i.e. a total of 1% of the amount which penetrated the cells was complexed to DNA. […] 10^-16 of platinum per cell.

abdominal viscera = experiment: Peritonitis (adhesion and hardening of abdominal viscera); assay type: in vivo, mouse
Experimental: as §1
As discussed above this problem seems to be linked to the presence of the 1,2-diaminocyclohexane ligand.

[7] = Stability in sodium chloride solution; assay type: physicochemical; conditions: 9% sodium chloride
Experimental: This compound has an exceptionally high degree of solubility.
as §1

Question: Which results are given for NC1CCCCC1N.O=C([O-])CC(C(=O)[O-])C([O-])C(=O)[O-].[H+].[H+].[Pt+2] (stereo not drawn) [PHIC, cis-isocitrato (1,2-diaminocyclohexane) platinum (II)]?
Answer: ILS (leukemia L 1210 [1]; 5 mg/kg, single i.p. on D1): 16%; ILS (leukemia L 1210 [1]; 10 mg/kg, single i.p. on D1): 40%; ILS (leukemia L 1210 [1]; 25 mg/kg, single i.p. on D1): 59%; ILS (leukemia L 1210 [1]; 50 mg/kg, single i.p. on D1): 79%; toxic death (leukemia L 1210 [1]; 100 mg/kg i.p., excluded from ILS calculation): one toxic death; ILS (leukemia L 1210 [1]; 100 mg/kg, single injection on D1): 129%; Survivals (leukemia L 1210 [1]; L 1210, 5 mg/kg i.p. on D1, day 30): 0%; Survivals (leukemia L 1210 [1]; L 1210, 10 mg/kg i.p. on D1, day 30): 0%; Survivals (leukemia L 1210 [1]; L 1210, 25 mg/kg i.p. on D1, day 30): 0%; Survivals (leukemia L 1210 [1]; L 1210, 50 mg/kg i.p. on D1, day 30): 0%; Survivals (leukemia L 1210 [1]; L 1210, 100 mg/kg i.p. on D1, day 30): 20%; anti-tumour activity (in words) (leukemia L 1210 [1]; leukemia L 1210): Very marked anti-tumor activity; also recorded: exerts the anti-tumour activity; Surviving animals having received L 1210 leukaemia and S 180 sarcoma (leukemia L 1210 [1]; summary for L 1210 and S 180): Yes; ILS (sarcoma S 180; 10 mg/kg): 29%; ILS (sarcoma S 180; 25 mg/kg): 46%; ILS (sarcoma S 180; 50 mg/kg): 112%; ILS (sarcoma S 180; 100 mg/kg): 171%; Survivals (sarcoma S 180; S 180, 10 mg/kg i.p. on D1, day 60): 0%; Survivals (sarcoma S 180; S 180, 25 mg/kg i.p. on D1, day 60): 0%; Survivals (sarcoma S 180; S 180, 50 mg/kg i.p. on D1, day 60): 20%; Survivals (sarcoma S 180; S 180, 100 mg/kg i.p. on D1, day 60): 40%; anti-tumour activity (in words) (sarcoma S 180; sarcoma S 180): Very marked anti-tumor activity; also recorded: exerts the anti-tumour activity; ILS (leukemia L 1210 [2]; 62.5 mg/kg i.p. on D1): 26%; ILS (leukemia L 1210 [2]; 62.5 mg/kg i.p. on D4): 17%; ILS (leukemia L 1210 [2]; 125 mg/kg i.p. on D4): 50%; anti-tumour activity (in words) (leukemia L 1210 [3]; graft intraperitoneal, treatment intravenous): active; ILS (leukemia L 1210 [3]; 50 mg/kg i.v. on D1): 25%; ILS (leukemia L 1210 [3]; 125 mg/kg i.v. on D1): 41%; IC50 (L 1210 cells [4]): 420 nM; loss of weight on the 4th day (mouse; LD10 dose): 3.5 g; loss of weight on the 4th day (mouse; LD50 dose): 4.3 g; toxicity (in words) (mouse; mice): Extremely low toxicity; LD10 (mouse; mouse, I.P.): 135 mg/kg; LD50 (mouse; mouse, I.P.): 236 mg/kg; LD90 (mouse; mouse, I.P.): 365 mg/kg; LD10 (mouse; mouse, I.V.): 348 mg/kg; LD50 (mouse; mouse, I.V.): 421 mg/kg; LD90 (mouse; mouse, I.V.): 489 mg/kg; LD50 (mouse; mouse, P.O.): > 1 000 mg/Kg; LD10 (dose killing 10% of the animals) (mouse; mouse, one single injection, Table V): 153 mg/kg; LD10 (rat; I.P.): 61 mg/kg; LD50 (rat; I.P.): 143 mg/kg; LD90 (rat; I.P.): 278 mg/kg; LD10 (rat; I.V.): 111 mg/kg; LD50 (rat; I.V.): 173 mg/kg; LD90 (rat; I.V.): 244 mg/kg; LD50 (rat; P.O.): > 1 000 mg/Kg; nephrotoxicity ([5]; LD0 level, mice): No; renal lesion ([5]; at a dose 20 times greater than that of PDD): does not cause any renal lesion; renal and hepatic alterations ([5]; i.p. at ~LD0 (mg/kg): PDD 8, PAC 100, PHM 50, PHD 4, PHS 5, PHC 120, PHIC 150, D1, D4, D10): did not provoke any significant alterations; Amount of penetrating platinum per cell (L 1210 cells [6]; PDD 9 mg/kg): 7e-14 g; platinum per cell (L 1210 cells [6]): 700. 10^-16; Number of fixed platinum atoms per nucleotide on DNA (DNA): 1/3500; amount that penetrated the cells which was complexed to DNA (DNA): 1%; nucleotides per one fixed platinum atom (DNA): 3500 nucleotides; peritonitis (abdominal viscera; healthy mice, i.p. injection): also observed in healthy mice; occurrence of peritonitis in relation to the 1,2-diaminocyclohexane ligand (abdominal viscera; i.p.): seems to be correlated with the presence of 1,2-diaminocyclohexane; peritonitis / long-term toxic effect (abdominal viscera; i.v. administration): never encountered; also recorded: not observed; peritonitis (abdominal viscera; tumour-bearing mice, i.p. treatment): most of the mice reaching 30 days of survival treatment with PHM and PHIC developed peritonitis; also recorded: causes peritonitis; change to chlorinated derivative in sodium chloride solution [7]: changing in 24 hours to a yellow chlorinated derivative which precipitates
